# Measured values taken from patent US20250177392A1, “BROAD SPECTRUM INHIBITORS OF CYTOMEGALOVIRUS” (MICROBIOTIX, INC., priority 2022, published 2025).
# Tests used:
# HCMV GDGr K17 (GCV^R) = test: Herpes virus panel neutralization, GCV-resistant HCMV; format: cell-based, Human cytomegalovirus
# Procedure: (§1) To determine the specificity of MBX-4992, additional neutralization experiments were conducted using a panel of herpes viruses performed in the presence of MBX-4992. […] Collectively, the antiviral activity of MBX-4992 is equivalent to that of GCV indicating specific inhibition of CMV replication.
# HHV-8 BCBL-1 = test: Herpes virus panel neutralization, HHV-8; format: cell-based, Human herpes virus 8
# Procedure: as §1
# EBV Akata = test: Herpes virus panel neutralization, EBV; format: cell-based, Epstein-Barrvirus
# Procedure: as §1
# MCMV Smith = test: Herpes virus panel neutralization, MCMV; format: cell-based, Murine cytomegalovirus
# Procedure: as §1
# [1] = Maximum solubility in water by nephlometry; format: physicochemical; details: Maximum solubility in water determined by nephlometry
# AD169^R = test: Virus pre-incubation / washout study; format: cell-based, Human cytomegalovirus; details: virus pre-incubated, compound washed out; MBX-4992 10 μM, heparin 50 μg/ml
# Procedure: (B) Based on the schematic, AD169^R (MOI 0.2) was pre-incubated with DMSO, MBX-4992, or heparin for one hour before being added to NHDF cells. Virus/compound mix was washed out after 30 minutes as indicated and either unchanged or replaced with media containing DMSO, MBX-4992, or heparin. Virus infection was quantified at 24 hpi GFP fluorescence. Percent infection was normalized to untreated cells.
# NHDF cells (10^4) plated overnight in a 96-well plate were incubated at 4° C. for 30 minutes with AD169^R CMV virus pretreated with MBX-4992 (10 μM), Heparin (50 μg/mL) or DMSO for 1 hour at room temperature (in triplicate). For 2/3rd of the samples, media was aspirated and half of the wells received DMSO media, regardless of which drug the virus was exposed to, or MBX-4992 (10 μM), or Heparin (50 μg/mL) overnight. At 18 hpi, the cells were fixed with 4% paraformaldehyde, stained with a rabbit anti-IE1 antibody followed by an anti-rabbit Alexa 647, and analyzed using the Celigo cytometer. The DMSO condition that was not aspirated post binding was set as 100% infection.
# To further characterize the mechanism of action, pre-incubation/washout studies were performed using AD169^R and MBX-4992. […] At 18 hpi, cells were immunostained with an anti-IE1 antibody as a readout for infection and quantified using a Celigo cytometer. […]
# VZV Ellen = test: Herpes virus panel neutralization, VZV; format: cell-based, Varicella-Zoster virus
# Procedure: as §1
# CMV AD169^IE2-YFP = test: Anti-CMV activity (IC50) of NAPA compounds, AD169 IE2-YFP reporter virus high-content assay in fibroblasts; format: cell-based, Human cytomegalovirus
# Procedure: To identify CMV inhibitors, a high-content screening (HCS) early-stage-specific reporter assay using a CMV AD169 yellow-fluorescent protein (YFP) expressing virus (AD169^IE2-YFP) (Gardner et al., Antiviral Res., 113:49-61 (2015)) was developed to screen >112,000 compounds to identify potent inhibitors (IC50<10 μM) of cytomegalovirus having a minimal mammalian cytotoxicity (CC50) of preferably ≥100 μM. As a result, we have identified, isolated, and characterized a novel series of N-arylpyrimidinamines (NAPAs) that inhibit CMV infection. […] Further, the NAPA compounds are broadly effective at inhibiting virus infection of diverse strains and cell types.
# The CMV IE1 and IE2 gene products are translated within 3-6 hours post infection (hpi) and function to stimulate viral promoters to initiate transcription of early and late viral genes (Cherrington et al., J. Virol., 63:1435-40 (1989); Meier et al., J. Virol., 71:1246-1255 (1997)). The CMV AD169 variant that expresses a viral protein chimera consisting of IE2-YFP (AD1691E2/YFP) was utilized to quantify virus infection in a high-throughput screen by a robust fluorescent signal localized exclusively to the nucleus (8-24 hpi) (Gardner et al., supra (2015); Cohen et al., Viruses, 8 (10): 295 (2016); Cohen et al., J. Virol., 90:10715-10727 (2016)). Using the AD1691E2-YFP reporter virus assay, a collection of the compound libraries (>112,000 compounds) was screened for inhibitors of the early stages of CMV replication using a confocal fluorescence microscopic plate reader (BioTek Cytation3). Infection was calculated as a percentage of nuclei containing YFP and cycloheximide (8 μM) was used as a positive control. The Z′ factor for the optimized assay was >0.5 which was sufficient to initiate screening.
# We evaluated 300 primary hits using an assay funnel designed to prioritize compounds based on antiviral activity, specificity, and drug-like properties. This identified two candidates for hit-to-lead optimization that were not Pan Assay Interference compounds (PAINS) (Baell et al., J. Med. Chem., 53:2719-40 (2010); Capuzzi et al., J. Chem. Inf. Model 57:417-427 (2017); Dahlin et al., Assay Drug Dev. Technol., 14:168-174 (2016)). […] The NAPA series was chosen as the primary hit-to-lead series due to its synthetic accessibility and the >2-log range in potency observed in the preliminary SAR that provides a clear pathway to improving antiviral activity and drug-like properties.
structure (smiles),measurement,setting,value
Cc1nc(Nc2ccc(NC(=O)c3ccco3)cc2)cc(N2CCCC2)n1 [MBX-4992],SI,HCMV GDGr K17 (GCV^R); HCMV GDGr K17 (GCV^R),>83
same,IC50,HCMV GDGr K17 (GCV^R); Human betaherpesvirus 5,1.8 µM
same,SI,HHV-8 BCBL-1,>10
same,IC50,"HHV-8 BCBL-1; Homo sapiens, BCBL1",10 µM
same,SI,EBV Akata,>3
same,IC50,EBV Akata; human gammaherpesvirus 4,30.9 µM
same,SI,MCMV Smith; MCMV Smith,>33
same,IC50,MCMV Smith; Murid betaherpesvirus 1,4.5 µM
same,Sol,[1],high solubility
same,solubility kinetic,[1]; kinetic from dmso stock,> 200 µM
same,decrease of infection after washing out,AD169^R,~25%
same,SI,VZV Ellen,<5
same,IC50,VZV Ellen; Human alphaherpesvirus 3,> 30 µM
same,selectivity index (SI),CMV AD169^IE2-YFP; CC50/IC50,> 50
same,IC50,"CMV AD169^IE2-YFP; Human betaherpesvirus 5, AD169, Fibroblast",1.72 µM
